From PubChem BioAssay (NCI) come the findings set out here.

Molecules are shown by their SMILES. Several values for one entry are separate records, joined by “and”; a condition that tells them apart may be missing. Equal entries are not always repeated.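 Exposure lasted 48 hours, with cells grown in 96-well plates and compounds tested at five concentrations. The concentration for 50% growth inhibition is given as GI50. TGI: total growth inhibition.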

The test system of one experiment is SK-MEL-2 melanoma. As to the kind of experiment: NCI tumour cell line growth inhibition, 48 h.
For the molecule `Cc1cc(NS(=O)(=O)c2ccc(Nc3c4ccccc4nc4c(C(=O)N5CCN(CCO)CC5)ccc(Cl)c34)cc2)no1`, the TGI was > 100 µM.
As for `CC(C)C(=O)Nc1nc2c(ncn2C2OC(CO)C(O)C2O)c(=O)[nH]1` (stereo not drawn), the TGI is > 100 µM.
Same read-out and setting: for `NCCSc1nc(-c2ccccc2)c(-c2ccccc2)o1` the value was > 100 µM.
As to `O=C1NC(=NCCc2cccc(Cl)c2)S/C1=C\c1ccc2ncccc2c1`, the GI50 was > 25 µM and the TGI is > 25 µM.

The next experiment relates to SNB-19 CNS. As to the kind of experiment: NCI tumour cell line growth inhibition, 48 h.
For `CC(C)C(=O)NS(=O)(=O)c1ccccc1`, the TGI is > 100 µM.
Still for that read-out and setting: under `COC1(OC)CC2C(=O)N(Cc3ccccc3)C1C=C2S(=O)(=O)c1ccccc1` (stereo not drawn) stands 54.7 µM.
As to `NC(=O)c1cc(S(=O)(=O)Nc2nnc(-c3ccccc3)c(-c3ccccc3)n2)c(SCc2ccccc2)cc1Cl`, the GI50 was > 100 µM and the TGI was > 100 µM.
As for `Cc1cc(C)c(/C=C2\C(=O)Nc3ccc(NC(=O)CCCCCCC(=O)NO)cc32)[nH]1`, the GI50 is 0.93 µM and the TGI was > 100 µM.
Consider `C1=C\COCc2cc(ccc2OCCN2CCCC2)Nc2nccc(n2)-c2cccc(c2)COC/1`, for which the GI50 is 2.68 µM and the TGI came out at 7.07 µM.
Taken in the same sequence, the figures for `CC(=O)[O][Ga]([Br])[O]C(C)=O` were > 100 µM and > 100 µM.
In turn, `COc1ccc(-c2coc3c4c(ccc3c2=O)OCO4)cc1OC` returned a TGI of 82 µM.
For `CC(C)(S)C(N)C(=O)O` (stereo not drawn), the GI50 is 3370 µM and the TGI is > 5000 µM.
Taken in the same sequence, the figures for `O=C1c2ccccc2-c2c1c1ccccc1c(=O)n2CCCCl` were 34.2 µM and > 100 µM.
On to `CN1C(=O)/C(=C/c2c(Cl)n(C)c3ccccc23)c2ccccc21`, for which the GI50 was 6.84 µM.
With `COc1cc2c(OC)cc1CSCc1sc(C)c(c1Br)CSC2`, the TGI is > 100 µM.
`CCOC(=O)/C=C(/C)Sc1cc(O)c2ccccc2c1O`: the GI50 was 4.05 µM and the TGI was 17 µM.
Turning to `COC(=O)[C@H]1C=C[C@@H](C)n2c(=O)c3cc4ccccc4cc3c(=O)n21`, the TGI is > 100 µM.
Same read-out and setting: under `Cc1nc2sc3c(c2c(=O)[nH]1)CCCC3` stands > 100 µM.
Consider `C#COc1cccc(Nc2c(C#N)cnc3ncc(NC(=O)CCl)cc23)c1`, for which the GI50 was 32.1 µM and the TGI was > 62.5 µM.
For `Cc1cc(NS(=O)(=O)c2ccc(Nc3c4ccccc4nc4c(C(=O)N5CCN(CCO)CC5)ccc(Cl)c34)cc2)no1`, the TGI was > 100 µM.
Same read-out and setting: for `NCCSc1nc(-c2ccccc2)c(-c2ccccc2)o1` the value was > 100 µM.
Take `O=C1NC(=NCCc2cccc(Cl)c2)S/C1=C\c1ccc2ncccc2c1`: the GI50 was > 25 µM and the TGI was > 25 µM.

Another experiment relates to HT29 colon. Briefly: NCI tumour cell line growth inhibition, 48 h.
Take `CC(C)C(=O)NS(=O)(=O)c1ccccc1`: the TGI is > 100 µM.
The same measure, in the same setting: for `COC1(OC)CC2C(=O)N(Cc3ccccc3)C1C=C2S(=O)(=O)c1ccccc1` (stereo not drawn) the value was 33.8 µM.
On the same count and under the same terms, under `NC(=O)c1cc(S(=O)(=O)Nc2nnc(-c3ccccc3)c(-c3ccccc3)n2)c(SCc2ccccc2)cc1Cl` stands > 100 µM.
For the molecule `Cc1cc(C)c(/C=C2\C(=O)Nc3ccc(NC(=O)CCCCCCC(=O)NO)cc32)[nH]1`, the GI50 was 0.859 µM and the TGI was > 100 µM.
On the same counts, the results for `C1=C\COCc2cc(ccc2OCCN2CCCC2)Nc2nccc(n2)-c2cccc(c2)COC/1` are 1.18 µM and 5.04 µM.
`CC(=O)[O][Ga]([Br])[O]C(C)=O`: the GI50 is > 100 µM and the TGI is > 100 µM.
For the molecule `COc1ccc(-c2coc3c4c(ccc3c2=O)OCO4)cc1OC`, the TGI was > 100 µM.
Turning to `CC(C)(S)C(N)C(=O)O` (stereo not drawn), the GI50 is > 5000 µM and the TGI is > 5000 µM.
On to `O=C1c2ccccc2-c2c1c1ccccc1c(=O)n2CCCCl`, for which the GI50 is 37.2 µM and the TGI is > 100 µM.
In the case of `CN1C(=O)/C(=C/c2c(Cl)n(C)c3ccccc23)c2ccccc21`, the GI50 was 4.37 µM and 5.57 µM; the TGI came to 17.8 µM.
`COc1cc2c(OC)cc1CSCc1sc(C)c(c1Br)CSC2`: the TGI is > 100 µM.
As for `Cc1cccc(C)c1NC(=O)C(=O)C(C(=O)c1ccccc1-c1ccccc1)C1OC(=O)c2ccccc21` (stereo not drawn), the TGI is > 100 µM.
Regarding `CCOC(=O)/C=C(/C)Sc1cc(O)c2ccccc2c1O`, the GI50 is 19.2 µM and the TGI amounted to 48.4 µM.
As for `Cc1nc2sc3c(c2c(=O)[nH]1)CCCC3`, the TGI was > 100 µM.
Regarding `C#COc1cccc(Nc2c(C#N)cnc3ncc(NC(=O)CCl)cc23)c1`, the GI50 is 21.8 µM and the TGI is > 62.5 µM.
As to `C/C(CC(=O)Nc1cccc(Cl)c1C)=N\NC(=O)c1ccncc1`, the TGI is > 100 µM.
The same measure, in the same setting: for `Cc1cc(NS(=O)(=O)c2ccc(Nc3c4ccccc4nc4c(C(=O)N5CCN(CCO)CC5)ccc(Cl)c34)cc2)no1` the value was > 100 µM; for `CC(C)C(=O)Nc1nc2c(ncn2C2OC(CO)C(O)C2O)c(=O)[nH]1` (stereo not drawn), > 100 µM; for `NCCSc1nc(-c2ccccc2)c(-c2ccccc2)o1`, > 100 µM.
With `O=C1NC(=NCCc2cccc(Cl)c2)S/C1=C\c1ccc2ncccc2c1`, the GI50 is > 25 µM and the TGI was > 25 µM.

A further experiment relates to HCT-15 colon. As to the kind of experiment: NCI tumour cell line growth inhibition, 48 h.
Regarding `NC(=O)c1cc(S(=O)(=O)Nc2nnc(-c3ccccc3)c(-c3ccccc3)n2)c(SCc2ccccc2)cc1Cl`, the GI50 was > 88.3 µM and the TGI was > 100 µM.
On the same counts, the results for `Cc1cc(C)c(/C=C2\C(=O)Nc3ccc(NC(=O)CCCCCCC(=O)NO)cc32)[nH]1` are > 100 µM and > 100 µM.
On the same counts, the results for `C1=C\COCc2cc(ccc2OCCN2CCCC2)Nc2nccc(n2)-c2cccc(c2)COC/1` are 1.26 µM and 7.51 µM.
Take `COc1ccc(-c2coc3c4c(ccc3c2=O)OCO4)cc1OC`: the TGI is > 100 µM.
With `CC(C)(S)C(N)C(=O)O` (stereo not drawn), the GI50 is 1950 µM and the TGI was > 5000 µM.
On the same counts, the results for `O=C1c2ccccc2-c2c1c1ccccc1c(=O)n2CCCCl` are 5.99 µM and > 100 µM.
As for `CN1C(=O)/C(=C/c2c(Cl)n(C)c3ccccc23)c2ccccc21`, the GI50 is 2.69 µM and 1.89 µM; the TGI turned out to be 3.56 µM.
Consider `COc1cc2c(OC)cc1CSCc1sc(C)c(c1Br)CSC2`, for which the TGI is > 100 µM.
Take `CCOC(=O)/C=C(/C)Sc1cc(O)c2ccccc2c1O`: the GI50 was 2.54 µM and the TGI was 8.83 µM.
Take `COC(=O)[C@H]1C=C[C@@H](C)n2c(=O)c3cc4ccccc4cc3c(=O)n21`: the TGI is > 100 µM.
Still for that read-out and setting: for `Cc1nc2sc3c(c2c(=O)[nH]1)CCCC3` the value was > 100 µM.
Consider `C#COc1cccc(Nc2c(C#N)cnc3ncc(NC(=O)CCl)cc23)c1`, for which the GI50 is > 62.5 µM and the TGI was > 62.5 µM.
As for `Cc1cc(NS(=O)(=O)c2ccc(Nc3c4ccccc4nc4c(C(=O)N5CCN(CCO)CC5)ccc(Cl)c34)cc2)no1`, the TGI was > 100 µM.
For `CC(C)C(=O)Nc1nc2c(ncn2C2OC(CO)C(O)C2O)c(=O)[nH]1` (stereo not drawn), the TGI is > 100 µM.
Still for that read-out and setting: under `NCCSc1nc(-c2ccccc2)c(-c2ccccc2)o1` stands > 100 µM.
On to `O=C1NC(=NCCc2cccc(Cl)c2)S/C1=C\c1ccc2ncccc2c1`, for which the GI50 was 1.08 µM and the TGI was > 25 µM.

The subject of the next experiment is OVCAR-4 ovarian. As to the kind of experiment: NCI tumour cell line growth inhibition, 48 h.
Take `CC(C)C(=O)NS(=O)(=O)c1ccccc1`: the TGI is > 100 µM.
Still for that read-out and setting: for `COC1(OC)CC2C(=O)N(Cc3ccccc3)C1C=C2S(=O)(=O)c1ccccc1` (stereo not drawn) the value was 53.5 µM; for `NC(=O)c1cc(S(=O)(=O)Nc2nnc(-c3ccccc3)c(-c3ccccc3)n2)c(SCc2ccccc2)cc1Cl`, > 64.6 µM.
Take `Cc1cc(C)c(/C=C2\C(=O)Nc3ccc(NC(=O)CCCCCCC(=O)NO)cc32)[nH]1`: the GI50 is 8.34 µM and the TGI was > 100 µM.
Consider `C1=C\COCc2cc(ccc2OCCN2CCCC2)Nc2nccc(n2)-c2cccc(c2)COC/1`, for which the GI50 was 3.79 µM and the TGI was 6.56 µM.
On the same counts, the results for `CC(=O)[O][Ga]([Br])[O]C(C)=O` are > 100 µM and > 100 µM.
Regarding `COc1ccc(-c2coc3c4c(ccc3c2=O)OCO4)cc1OC`, the TGI is > 100 µM.
As to `CC(C)(S)C(N)C(=O)O` (stereo not drawn), the GI50 is > 5000 µM and the TGI is > 5000 µM.
On to `O=C1c2ccccc2-c2c1c1ccccc1c(=O)n2CCCCl`, for which the GI50 is > 100 µM and the TGI is > 100 µM.
`CN1C(=O)/C(=C/c2c(Cl)n(C)c3ccccc23)c2ccccc21`: the GI50 was 8.99 µM and 1.82 µM; the TGI came to 3.45 µM.
For the molecule `COc1cc2c(OC)cc1CSCc1sc(C)c(c1Br)CSC2`, the TGI was > 100 µM.
As for `CCOC(=O)/C=C(/C)Sc1cc(O)c2ccccc2c1O`, the GI50 was 3.36 µM and the TGI worked out at 13.2 µM.
Consider `Cc1nc2sc3c(c2c(=O)[nH]1)CCCC3`, for which the TGI is > 100 µM.
On the same count and under the same terms, for `Cc1cc(NS(=O)(=O)c2ccc(Nc3c4ccccc4nc4c(C(=O)N5CCN(CCO)CC5)ccc(Cl)c34)cc2)no1` the value was > 100 µM.
`CC(C)C(=O)Nc1nc2c(ncn2C2OC(CO)C(O)C2O)c(=O)[nH]1` (stereo not drawn): the TGI was > 100 µM.
Turning to `NCCSc1nc(-c2ccccc2)c(-c2ccccc2)o1`, the TGI was > 100 µM.
Turning to `O=C1NC(=NCCc2cccc(Cl)c2)S/C1=C\c1ccc2ncccc2c1`, the GI50 is > 25 µM and the TGI is > 25 µM.

Another experiment deals with LOX IMVI melanoma. As to the kind of experiment: NCI tumour cell line growth inhibition, 48 h.
As to `CC(C)C(=O)NS(=O)(=O)c1ccccc1`, the TGI was > 100 µM.
`COC1(OC)CC2C(=O)N(Cc3ccccc3)C1C=C2S(=O)(=O)c1ccccc1` (stereo not drawn) registered a TGI of 28.2 µM.
Turning to `NC(=O)c1cc(S(=O)(=O)Nc2nnc(-c3ccccc3)c(-c3ccccc3)n2)c(SCc2ccccc2)cc1Cl`, the GI50 is > 82.3 µM and the TGI was > 100 µM.
For the molecule `Cc1cc(C)c(/C=C2\C(=O)Nc3ccc(NC(=O)CCCCCCC(=O)NO)cc32)[nH]1`, the GI50 is 0.493 µM and the TGI turned out to be 12.9 µM.
Taken in the same sequence, the figures for `C1=C\COCc2cc(ccc2OCCN2CCCC2)Nc2nccc(n2)-c2cccc(c2)COC/1` were 0.847 µM and 2.88 µM.
As to `CC(=O)[O][Ga]([Br])[O]C(C)=O`, the GI50 is > 100 µM and the TGI is > 100 µM.
Turning to `COc1ccc(-c2coc3c4c(ccc3c2=O)OCO4)cc1OC`, the TGI is > 100 µM.
For `CC(C)(S)C(N)C(=O)O` (stereo not drawn), the GI50 was 1590 µM and the TGI is > 5000 µM.
Consider `O=C1c2ccccc2-c2c1c1ccccc1c(=O)n2CCCCl`, for which the GI50 is 6.78 µM and the TGI is 35.7 µM.
Turning to `CN1C(=O)/C(=C/c2c(Cl)n(C)c3ccccc23)c2ccccc21`, the GI50 was 4.79 µM.
For the molecule `COc1cc2c(OC)cc1CSCc1sc(C)c(c1Br)CSC2`, the TGI was > 100 µM.
For the molecule `Cc1cccc(C)c1NC(=O)C(=O)C(C(=O)c1ccccc1-c1ccccc1)C1OC(=O)c2ccccc21` (stereo not drawn), the TGI worked out at 45 µM.
Regarding `CCOC(=O)/C=C(/C)Sc1cc(O)c2ccccc2c1O`, the GI50 was 2.14 µM and the TGI was > 23.1 µM.
With `COC(=O)[C@H]1C=C[C@@H](C)n2c(=O)c3cc4ccccc4cc3c(=O)n21`, the TGI was > 100 µM.
As to `Cc1nc2sc3c(c2c(=O)[nH]1)CCCC3`, the TGI was > 100 µM.
As to `C#COc1cccc(Nc2c(C#N)cnc3ncc(NC(=O)CCl)cc23)c1`, the GI50 is 28.8 µM and the TGI was > 62.5 µM.
`C/C(CC(=O)Nc1cccc(Cl)c1C)=N\NC(=O)c1ccncc1`: the TGI is > 100 µM.
Turning to `CC(C)C(=O)Nc1nc2c(ncn2C2OC(CO)C(O)C2O)c(=O)[nH]1` (stereo not drawn), the TGI was > 100 µM.
As for `NCCSc1nc(-c2ccccc2)c(-c2ccccc2)o1`, the TGI is > 100 µM.
